The results in this text go back to patent US20250152720A1, “NEW CARBOHYDRATE DERIVATIVES AS MIMETICS OF BLOOD GROUP A AND B ANTIGENS” (REMAB THERAPEUTICS SL, priority 2022, published 2025).

The subject of assay [1] is purified human anti-A antibodies (IgG, IgM). The following applies: IgG 0.075 ug/mL and IgM 0.185 ug/mL; glycoconjugate at 10, 100 and 400 μg/mL; versus Comparative-2; FIG. 10.
Method: (§1) ELISA: Maxisorp 96-well flat-bottom plates (Thermo Scientific, Waltham, MA, US) were coated for 18 hours at 4° C. with 50 μL/well of 10 μg/mL of the following PAA-glycoconjugates (as disclosed above in Table 3): 1 (B natural type2) and 5 (A natural type2); in coating buffer (0.05 M carbonate-bicarbonate, pH 9.6). Wells coated only with 50 μL/well of 10 μg/mL of PAA were considered the background of each sample assessed. After coating, the plates were washed three times with 200 μL/well of 0.1% (v/v) PBST using an autowasher and blocked for 1 hour at 4° C. with 100 μL/well of 0.1% (v/v) PBST+1% (w/v) BSA. Washing steps were repeated.
The tubes were incubated for 18 hours at 4° C. and then a convenient dilution of inhibition mix to the ELISA plate (50 μL/vell) was added and incubated for 0.5 hours at 25° C. in a rocker.
(§2) After washing steps, plates were incubated for 0.5 hours at 25° C. […] The reaction was stopped with 50 μL/well of 3N HCl, and the resulting absorbance was registered at 490 nm using a microplate reader.
To quantify the antibody levels. […]
The percentage of removal (%) was calculated referred to the baseline condition (without inhibitor compound).
The test system of assay [2] is purified anti-B antibodies binding to red blood cells (Group B). In words: Flow Cytometry inhibition of binding of purified anti-B antibodies to red blood cells (Group B) (Example 6.4). It counts as cell-based, human. The following applies: anti-B 1 μg/mL. The method, then:
The capacity to inhibit the binding of purified anti-B antibodies to red blood cells (Group B), measured by Flow Cytometry was tested. The Flow Cytometry assay was performed as follows: […] Afterwards, primary antibodies with the corresponding inhibitor were added. […] The samples were then incubated for 30 minutes at 37° C. (in the dark, mild horizontal shaking 30-40 rpm). Afterwards the samples were washed twice with PBS (centrifuged at 300 g. 3 minutes), and the supernatants were removed by aspiration. Then, 50 μL of the corresponding fluorochrome secondary anti-Ig antibody (7.5 μg/mL of goat anti-human IgG Alexa Fluor 647. Jackson Immunoresearch, West Grove, PA, USA, and 20 μg/mL of goat anti-human IgM C[…], Sigma-Aldrich, St. Louis, MO, USA) diluted in PBS were added to the RBC and incubated for 35 minutes at 37° C. (in the dark). The samples were washed twice with PBS (centrifuged at 300 g, 3 minutes), and the supernatants were removed by aspiration. Finally, the cells were resuspended in filtered PBS. Cells incubated with only PBS were used as a negative control for the experiment. Cells incubated only with secondary antibodies were considered background signals. Flow Cytometry analysis was performed on a Beckman Coulter Gallios Flow Cytometry analyzer using the blue (488 nm-22 mW) and red (635 nm-25 mW) solid-state laser as exciting source. Every single FACS determination recorded about 20,000 total events. Data was analyzed with KALUZA software (Beckman Coulter, CA, USA). The inhibitory capacity was expressed as a percentage of removal referred to the baseline condition (in ordinates).

In assay [3] the test system is purified human anti-B antibodies (IgG, IgM). The following applies: IgG 0,095 ug/mL and IgM 0.045 ug/mL; increasing glycoconjugate concentrations (0-400 μg/mL); versus Comparative-1; FIG. 11.
Method: as §1
The inhibition samples were prepared in separate tubes using a fixed concentration of anti-A or anti-B antibodies, and an increasing concentration of the following polylysine glycoconjugate inhibitors, prepared in Example 4 (0-400 μg/mL): • Comparative-1 (comprising natural B type-II antigen) • Example 4.1 (comprising analogue of Example 1.1) • Comparative-2 (comprising natural A type-II antigen) • Example 4.8 (comprising analogue of Example 1.8) […]
as §2
The percentage of removal (%) was calculated referred to the baseline condition (without inhibitor compound). […]

As to “Polylysine DP1000 Conjugate with Trisaccharide GlcNAcα1-3(Fucα1-2)Galβ (Example 1.8) (25%) [Example 4-8]”, the “capacity to inhibit human purified anti-A antibodies (percentage of removal)” value in assay [1] was “higher capacity to inhibit human purified anti-A antibodies than the comparator”.

On to “Polyfysine DP1000 conjugate with tetrasaccharide Glcα1-3(Fucα1-2)Galβ1-4GlcNAcβ (Example 1.1) (25%) [Example 4.1]”, for which, in assay [2] (inhibitor 2.5 ug/mL), the “percentage of removal referred to the baseline condition, IgG” value was 5.64% and the “percentage of removal referred to the baseline condition, IgM” value worked out at 6.35%. In assay [3], the “capacity to inhibit human purified anti-B antibodies (percentage of removal)” value is on record as “lower capacity to inhibit human purified anti-B antibodies than the natural comparator”.

Take “Polylysine DP1000 Conjugate with Galα1-3(Fucα1-2)Galβ1-4GlcNAcβB (Type2) Tetrasaccharide [Comparative-1, reference compound]”: in assay [2] (inhibitor 0.25 ug/mL), the “percentage of removal referred to the baseline condition, IgG” value was 15.12% and the “percentage of removal referred to the baseline condition, IgM” value is on record as 26.4%.
